# Measured values published in paper PMC7986777 (Chemistry (Weinheim an Der Bergstrasse, Germany), 2021).
# How the values were obtained:
# Assay in all cases: fluorescent cephalosporin
# Format in all cases: biochemical
# VIM-2 = VIM-2 (Pseudomonas aeruginosa, UniProt Q9K2N0); details: read-out: VIM-2 IC50; […] min pre-incubation, FC5 substrate, HEPES
# IMP-28 = IMP-28 (Klebsiella oxytoca, UniProt G4WB26); details: read-out: IMP-28 IC50; […] min pre-incubation, FC5 substrate, HEPES
# NDM-1 = NDM-1 (Klebsiella pneumoniae, UniProt C7C422)
# Sequence of NDM-1 (C7C422 29-270, looked up): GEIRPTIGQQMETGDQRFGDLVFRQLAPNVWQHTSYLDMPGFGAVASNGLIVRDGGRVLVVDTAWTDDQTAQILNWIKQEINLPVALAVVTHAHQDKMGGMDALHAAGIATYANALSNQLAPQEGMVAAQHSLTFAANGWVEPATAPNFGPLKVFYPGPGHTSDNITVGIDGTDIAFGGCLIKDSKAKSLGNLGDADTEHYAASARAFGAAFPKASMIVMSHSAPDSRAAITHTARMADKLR
# Sequence of IMP-28 (G4WB26 20-246): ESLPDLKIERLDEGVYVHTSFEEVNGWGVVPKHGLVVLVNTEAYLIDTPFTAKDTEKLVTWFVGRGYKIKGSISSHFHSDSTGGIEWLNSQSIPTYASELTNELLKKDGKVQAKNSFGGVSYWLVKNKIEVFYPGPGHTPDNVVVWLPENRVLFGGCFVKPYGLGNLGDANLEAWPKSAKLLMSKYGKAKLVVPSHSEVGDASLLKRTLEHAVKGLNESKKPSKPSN
IC50 (VIM-2) [µM],IC50 (IMP-28) [µM],IC50 (NDM-1) [µM],SMILES
0.756 ± 0.056,46.7 ± 2.76,0.299 ± 0.005,O=C(Cc1ccccc1)N[C@@H]1C(=O)N2C(C(=O)O)=C(COC(=O)c3cccc(C(=O)O)n3)C[S+]([O-])[C@H]12 (stereo partly shown) [compound 14]
1.87 ± 0.1,7.39 ± 0.1,2.13 ± 0.07,O=C(Cc1ccccc1)N[C@@H]1C(=O)N2C(C(=O)O)=C(COC(=O)c3cccc(C(=O)O)n3)CS[C@H]12 [compound 13]
10.8 ± 0.6,61.9 ± 1.82,18.8 ± 1.22,O=C(Cc1ccccc1)N[C@@H]1C(=O)N2C(C(=O)O)=C(COC(=O)c3cccc(C(=O)O)n3)CS(=O)(=O)[C@H]12 [compound 15]
4.17 ± 0.65,46.2 ± 3.13,8.47 ± 1.02,O=C(Cc1ccccc1)N[C@@H]1C(=O)N2C(C(=O)O)=C(CSc3cccc4cccnc34)CS(=O)(=O)[C@H]12 [compound 8]
6.35 ± 0.56,71.9 ± 3.05,2.18 ± 0.14,O=C(Cc1ccccc1)N[C@@H]1C(=O)N2C(C(=O)O)=C(CSc3cccc4cccnc34)C[S+]([O-])[C@H]12 (stereo partly shown) [compound 7]

# Second part, the molecule before the results:
SMILES,IC50 (VIM-2) [µM],IC50 (IMP-28) [µM],IC50 (NDM-1) [µM]
O=C(O)c1cccc(C(=O)O)n1 [DPA],4.34 ± 0.67,9.65 ± 0.62,
O=C(Cc1ccccc1)N[C@@H]1C(=O)N2C(C(=O)O)=C(CSc3cccc4cccnc34)CS[C@H]12 [compound 6],3.64 ± 0.27,10.3 ± 0.22,
Sc1cccc2cccnc12 [8-TQ],4.2 ± 1,4.2 ± 0.11,2.99 ± 0.58
